# Values quoted from earlier work in US7291720B2, “Use of sublethal concentrations of anti-invasin compounds to therapeutically or prophylactically treat fungal infections” (priority 2000, dated 2007).
# Tests used:
# [1] = system: susceptible isolate of C. albicans; settings: in vitro
# [2] = about half necessitated discontinuation of therapy
structure (smiles),measurement,setting,value
OC(Cn1cncn1)(Cn1cncn1)c1ccc(F)cc1F [fluconazole],concentration that reduces hyphal formation,[1],0.1 µg/mL
same,"patients with adverse reactions, possibly related to the treatment",[2],over 5%
